In PubChem BioAssay (NCI):
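GI50 marks 50% less growth. The concentration for full growth arrest is given as TGI.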

How the values were obtained:
Assay in all cases: NCI tumour cell line growth inhibition, 384-well format
[1] = test system: TK-10 renal
[2] = test system: HCT-116 colon
[3] = test system: SF-295 CNS
[4] = test system: OVCAR-4 ovarian
[5] = test system: SF-539 CNS
[6] = test system: NCI-H460 NSCLC
[7] = test system: UACC-62 melanoma
[8] = test system: UO-31 renal
[9] = test system: PC-3 prostate
[10] = test system: SNB-19 CNS
[11] = test system: KM12 colon
[12] = test system: MOLT-4 leukemia
[13] = test system: NCI-H23 lung
[14] = test system: MDA-MB-231 breast
[15] = test system: HL-60(TB) leukemia
[16] = test system: MCF7 breast
[17] = test system: BT-549 breast
[18] = test system: 786-0 renal
[19] = test system: HOP-62 NSCLC
[20] = test system: K-562 leukemia
[21] = test system: HS 578T breast
[22] = test system: EKVX NSCLC
[23] = test system: SK-OV-3 ovarian
[24] = test system: A549 NSCLC
[25] = test system: SR leukemia
[26] = test system: MDA-MB-435 melanoma
[27] = test system: OVCAR-8 ovarian
[28] = test system: CAKI-1 renal
[29] = test system: SF-268 CNS
[30] = test system: HT29 colon
[31] = test system: SK-MEL-28 melanoma
[32] = test system: T-47D breast
[33] = test system: SK-MEL-2 melanoma
[34] = test system: NCI-H322M lung
[35] = test system: IGROV1 ovarian
[36] = test system: OVCAR-5 ovarian
[37] = test system: DU-145 prostate
[38] = test system: MDA-MB-468 breast
[39] = test system: SNB-75 CNS
[40] = test system: SN12C renal
[41] = test system: U251 glioblastoma
[42] = test system: OVCAR-3 ovarian
[43] = test system: NCI-H226 lung
[44] = test system: NCI-H522 lung
[45] = test system: RXF 393 renal
[46] = test system: HOP-92 NSCLC
[47] = test system: SK-MEL-5 melanoma
[48] = test system: M14 melanoma
[49] = test system: HCT-15 colon
[50] = test system: MALME-3M melanoma
[51] = test system: SW-620 colon
[52] = test system: COLO 205 colon
[53] = test system: UACC-257 melanoma
[54] = test system: A498 renal
[55] = test system: RPMI-8226 leukemia
[56] = test system: ACHN renal
[57] = test system: CCRF-CEM leukemia
[58] = test system: HCC-2998 colon
[59] = test system: LOX IMVI melanoma
[60] = test system: NCI/ADR-RES ovarian

Work on `C=CCn1c(=O)c2cnc(Nc3ccc(N4CCN(C)CC4)cc3)nc2n1-c1ccc2c(n1)[C@@](O)(CC)CC2` yielded a GI50 [1] of 160 nM, a TGI [1] of 1560 nM and a GI50 [2] of 268 nM. For the same compound, the TGI [2] was 8680 nM, the GI50 [3] was 348 nM and the TGI [3] was 3540 nM. It also gave a GI50 [4] of 196 nM, a TGI [4] of 1040 nM and a GI50 [5] of 49.5 nM. The TGI [5] was 194 nM, the GI50 [6] was 139 nM and the TGI [6] was 806 nM. For the same compound, the GI50 [7] was 371 nM, the TGI [7] was 14700 nM and the GI50 [8] was 307 nM. It also gave a TGI [8] of 1440 nM, a GI50 [9] of 1040 nM and a TGI [9] of 20300 nM. For the same compound, the GI50 [10] was 1350 nM, the TGI [10] was greater than 100000 nM and the GI50 [11] was 1130 nM. The TGI [11] was 7260 nM, the GI50 [12] was 30.5 nM and the TGI [12] was 121 nM. It also gave a GI50 [13] of 78.5 nM, a TGI [13] of 257 nM and a GI50 [14] of 395 nM. The TGI [14] was 10100 nM, the GI50 [15] was 110 nM and the TGI [15] was 233 nM. For the same compound, the GI50 [16] was 218 nM, the TGI [16] was 2190 nM and the GI50 [17] was 137 nM. It also gave a TGI [17] of 348 nM, a GI50 [18] of 243 nM and a TGI [18] of 964 nM. It also gave a GI50 [19] of 401 nM, a TGI [19] of 2150 nM and a GI50 [20] of 165 nM. The TGI [20] was 354 nM, the GI50 [21] was 83 nM and the TGI [21] was 445 nM. For the same compound, the GI50 [22] was 324 nM, the TGI [22] was 2510 nM and the GI50 [23] was 174 nM. For the same compound, the TGI [23] was 1570 nM, the GI50 [24] was 1830 nM and the TGI [24] was 12300 nM. It also gave a GI50 [25] of 103 nM, a TGI [25] of 224 nM and a GI50 [26] of 160 nM. For the same compound, the TGI [26] was 374 nM, the GI50 [27] was 288 nM and the TGI [27] was 1050 nM. For the same compound, the GI50 [28] was 64.4 nM, the TGI [28] was 12700 nM and the GI50 [29] was 689 nM. For the same compound, the TGI [29] was 13800 nM, the GI50 [30] was 211 nM and the TGI [30] was 536 nM. The GI50 [31] was 2880 nM, the TGI [31] was 14300 nM and the GI50 [32] was 5810 nM. For the same compound, the TGI [32] was 21800 nM, the GI50 [33] was 124 nM and the TGI [33] was 352 nM. It also gave a GI50 [34] of 206 nM, a TGI [34] of 2030 nM and a GI50 [35] of 95.3 nM. For the same compound, the TGI [35] was 1350 nM, the GI50 [36] was 920 nM and the TGI [36] was 14400 nM. The GI50 [37] was 241 nM, the TGI [37] was 3890 nM and the GI50 [38] was 120 nM. The TGI [38] was 349 nM, the GI50 [39] was 1070 nM and the TGI [39] was 8160 nM. The GI50 [40] was 328 nM, the TGI [40] was 3890 nM and the GI50 [41] was 497 nM. It also gave a TGI [41] of 11400 nM, a GI50 [42] of 126 nM and a TGI [42] of 371 nM. It also gave a GI50 [43] of 1020 nM, a TGI [43] of 5550 nM and a GI50 [44] of 130 nM. For the same compound, the TGI [44] was 286 nM, the GI50 [45] was 26 nM and the TGI [45] was 106 nM. The GI50 [46] was 130 nM, the TGI [46] was 13400 nM and the GI50 [47] was 172 nM. For the same compound, the TGI [47] was 453 nM, the GI50 [48] was 58.4 nM and the TGI [48] was 863 nM. It also gave a GI50 [49] of 440 nM, a TGI [49] of 1800 nM and a GI50 [50] of 101 nM. It also gave a TGI [50] of 484 nM, a GI50 [51] of 280 nM and a TGI [51] of 1950 nM. It also gave a GI50 [52] of 349 nM, a TGI [52] of 2020 nM and a GI50 [53] of 1950 nM. The TGI [53] was 11300 nM.
`COc1ccc2c(c1)[C@]1(C[C@H]1c1ccc3c(/C=C/c4ccc(CN5C[C@@H](C)O[C@@H](C)C5)cc4)n[nH]c3c1)C(=O)N2` was tested, and the GI50 [1] was 3660 nM, the TGI [1] was 27900 nM and the GI50 [2] was 1560 nM. It also gave a TGI [2] of 6470 nM, a GI50 [54] of 2330 nM and a TGI [54] of 6320 nM. It also gave a GI50 [3] of 2740 nM, a TGI [3] of 15100 nM and a GI50 [4] of 5150 nM. It also gave a TGI [4] of 28000 nM, a GI50 [5] of 1300 nM and a TGI [5] of 2640 nM. It also gave a GI50 [6] of less than 10 nM, a TGI [6] of 2020 nM and a GI50 [7] of 1810 nM. The TGI [7] was 11000 nM, the GI50 [8] was 4200 nM and the TGI [8] was 68100 nM. For the same compound, the GI50 [9] was 3280 nM, the TGI [9] was 11000 nM and the GI50 [10] was 3340 nM. The TGI [10] was 92700 nM, the GI50 [11] was 17.1 nM and the TGI [11] was 1680 nM. The GI50 [13] was 1670 nM, the TGI [13] was 4270 nM and the GI50 [14] was 3050 nM. The TGI [14] was 10400 nM, the GI50 [55] was 156 nM and the TGI [55] was 3400 nM. For the same compound, the GI50 [16] was 1640 nM, the TGI [16] was 3310 nM and the GI50 [17] was 1680 nM. For the same compound, the TGI [17] was 3220 nM, the GI50 [18] was 1630 nM and the TGI [18] was 3370 nM. The GI50 [19] was 1070 nM, the TGI [19] was 3320 nM and the GI50 [20] was 219 nM. It also gave a TGI [20] of 896 nM, a GI50 [21] of 2230 nM and a TGI [21] of 4380 nM. The GI50 [22] was 3760 nM, the TGI [22] was 46800 nM and the GI50 [23] was 3290 nM. The TGI [23] was 33500 nM, the GI50 [24] was 1190 nM and the TGI [24] was 32200 nM. For the same compound, the GI50 [26] was 4640 nM, the TGI [26] was 17400 nM and the GI50 [56] was 2730 nM. For the same compound, the TGI [56] was 16800 nM, the GI50 [27] was 2300 nM and the TGI [27] was 9750 nM. For the same compound, the GI50 [28] was 3600 nM, the TGI [28] was greater than 100000 nM and the GI50 [29] was less than 10 nM. For the same compound, the TGI [29] was 2810 nM, the GI50 [30] was 1820 nM and the TGI [30] was 3560 nM. The GI50 [31] was 5220 nM, the TGI [31] was 20900 nM and the GI50 [32] was 2070 nM. The TGI [32] was 5250 nM, the GI50 [34] was 4480 nM and the TGI [34] was greater than 100000 nM. The GI50 [35] was 4810 nM, the TGI [35] was greater than 100000 nM and the GI50 [36] was 4130 nM. For the same compound, the TGI [36] was 64500 nM, the GI50 [37] was 3110 nM and the TGI [37] was 12900 nM. It also gave a GI50 [57] of less than 10 nM, a GI50 [58] of 2730 nM and a TGI [58] of 5410 nM. It also gave a GI50 [38] of less than 10 nM, a TGI [38] of 70 nM and a GI50 [59] of 1650 nM. The TGI [59] was 3640 nM, the GI50 [60] was 1820 nM and the TGI [60] was 7140 nM. The GI50 [39] was 1730 nM, the TGI [39] was 4270 nM and the GI50 [40] was 3570 nM. For the same compound, the TGI [40] was 52900 nM, the GI50 [41] was 2340 nM and the TGI [41] was 6900 nM. The GI50 [42] was 1330 nM, the TGI [42] was 2890 nM and the GI50 [43] was 1250 nM. For the same compound, the TGI [43] was 14200 nM, the GI50 [44] was 2290 nM and the TGI [44] was greater than 100000 nM. The GI50 [46] was 2190 nM, the TGI [46] was 7290 nM and the GI50 [47] was 1500 nM. It also gave a TGI [47] of 2850 nM, a GI50 [48] of 2420 nM and a TGI [48] of 11400 nM. It also gave a GI50 [49] of 2670 nM, a TGI [49] of 8830 nM and a GI50 [50] of 1260 nM. The TGI [50] was 2640 nM, the GI50 [51] was 2620 nM and the TGI [51] was 11900 nM. The GI50 [53] was 2640 nM and the TGI [53] was 8980 nM.
